Laboratory results published in patent publication US11571484B2, “Compositions that target tumor-associated macrophages and methods of use therefor” (Sanford Burnham Prebys Medical Discovery Institute, priority 2017, dated 2023).
Ends that are not written are not given here. FAM = 5(6)-carboxyfluorescein; Ahx = NCCCCCC(=O)O

What was measured:
[1] = biological target: T1, recombinant mouse CD163 (Mus musculus, UniProt Q2VLH6); assay: Fluorescence anisotropy assay with recombinant CD163; format: binding; settings: 50 nM FAM peptide, 1 μM protein, 25 °C
T1 construct: purchased R&D Systems 7435-CD-050
Procedure: The recombinant mouse macrophage mannose receptor rmMMR/CD206 (R&D Systems, catalog number: 2535-MM-050) and recombinant mouse CD163 (R&D Systems, catalog number: 7435-CD-050) were reconstituted at 1 mg/ml in IB, aliquoted and stored at −20° C. To generate linearized version of cyclic FAM-UNO peptide, the peptide at 1 mM concentration was preincubated for 24 h at room temperature in a dark place with 3 mM DTT and diluted with IB 2×10^5 times before the FA assay. The control experiment with FAM-CPMTDNE peptide (FIG. 22) was performed to rule out the possibility of disulphide bond formation, which could affect the binding properties of linear peptides. […]
Fluorescence anisotropy was also carried out using recombinant human macrophage mannose receptor rhMMR/CD206 to determine whether UNO peptide interactions with mouse CD206 carried over to human CD206. […]
In all experiments, FA signal measurements were done under pseudo first-order conditions with 50 nM singly labelled FAM peptides and 1 μM proteins. […] Assays were carried out in kinetic mode in a total volume of 30 μl at 25° C. on the PHERAstar (BMG Labtech, Germany) microplate reader using an optical module with excitation and emission filters of 485 nm (slit 10 nm) and 520 nm (slit 10 nm), respectively. […] FA signals at time t after initiation of binding reaction was calculated as parameters r(t) from the equation: […]

[2] = system: MEMs in MCF-7 tumors; assay: Free peptide homing and immunofluorescence in the orthotopic MCF-7 breast tumor model; format: in vivo, mouse; settings: 30 nmoles i.v., 2 h
Procedure: A, Thirty nmoles of FAM-UNO were injected intravenously in mice bearing MCF-7 tumors, 21 days after orthotopic inoculation of 5×10^6 cells. […] All images were taken with the same imaging conditions. Scale bar: 100 μm and 50 μm (blow up). […] The tumor tissue from panel A was analyzed by immunofluorescence using rabbit anti-FAM (green), rat anti-HLA ABC (red) and counterstained with DAPI (blue). Scale bar: 50 μm. C, MCF-7 tumors are leaky. Tumor sections were immunostained for endogenous mouse IgG and counterstained with DAPI using the same staining and imaging conditions as in FIG. 17. Scale bar: 100 μm. Representative images from n=3 mice.
Mice were used for homing studies two weeks later.

[3] = system: MEMs in WT-GBM tumors; assay: Free peptide homing and immunofluorescence in the orthotopic WT-GBM glioblastoma model; settings: 30 nmoles i.v., 2 h
Procedure: Thirty nmoles of FAM-UNO or FAM-control peptide were injected intravenously into mice and allowed to circulate for 2 h. Mice were then sacrificed and tumor and tissues were analyzed by immunofluorescence using rabbit anti-FAM (green) and rat anti-CD206 (red) antibodies, and counterstained with DAPI. […] The metastases were induced by i.v. inoculation of B16F10 melanoma cells. […] Blue: DAPI. Representative fields from multiple sections (n≥3) prepared from at least 3 tumors are shown. Scale bar: 50 μm. Images shown are representative fields from multiple sections (≥3) prepared from at least 3 tumors (n≥3 mice). The graphs show mean+SEM of FAM signal quantified as described in Materials and Methods.
Tumor models were induced according to protocols approved by the Estonian Ministry of Agriculture, Committee of Animal Experimentation (permit #48). For the 4T1 breast model, 8-week old female Balb/c mice were injected in the mammary fat pad with 10^6 cells dispersed in 50 μL of PBS. For homing studies, mice were used 10 days later, when the tumor had reached ˜150 mm^3. For MCF-7 breast model, 8-week old female nude mice were implanted with an estrogen pellet, and 1 week later inoculated with 5×10^6 MCF-7 cells in 100 μL of cold Matrigel (BD Biosciences, CA, USA). Mice were used for homing studies three weeks later (tumor volume˜150 mm^3). For the metastatic gastric carcinoma, 10^6 MKN45-P cells in PBS were injected intraperitoneally in 8-week old female nude mice. Mice were used for homing studies two weeks later. For the metastatic melanoma model, 2×10^5 B16F10 cells were injected intravenously in 100 μL of PBS in C57 BL6 mice. The mice were used for homing studies 10 days after. For the angiogenic glioblastoma model, WT-GBM 24, 7×10^5 cells were stereotactically injected in the right striatum of Fox/Nu mice 2 mm lateral and posterior of bregma of 2.5 mm deep. The mice were used for homing studies 6-7 days after the injection.
For free peptide homing studies, mice were injected intravenously with 30 nmoles of FAM-peptides in 100 μL of PBS. For nanoparticle homing studies-FAM-UNO—NP-PTX-, mice were injected intravenously in mice bearing MCF-7 breast tumors with 1 mg of Polymer in 100 μL pf PBS and allowed to circulate for 6 h. For tissue collection, the mice were anesthetized and the tissues collected and immediately placed in 4% cold PFA and left overnight at 4-C. Tissues were washed with PBS for 2 h at room temperature and cryoprotected with sucrose 15% at 4-C overnight and then in sucrose 30% at 4·C overnight. […] FAM was detected using Rabbit anti-FITC (Invitrogen, CA, USA. Catalog # A-889) at a dilution of 1/100 and using Alexa Fluor-546 anti-rabbit antibody (Invitrogen, Ca, USA. Catalog # A-11035) at a dilution of 1/200.

[4] = system: sentinel lymph node; assay: Ex vivo organ imaging after i.p. injection in 4T1 tumor-bearing mice; design: species or system mouse; settings: 30 nmoles i.p., 2 h, signal normalized to tissue weight, ratio tissue/kidney
Procedure: A, FAM-UNO and FAM-LyP-1 were injected i.p. at doses of 30 nmoles in 4T1 tumor-bearing mice. Peptides were allowed to circulate for two h, mice were then sacrificed, and the organs were collected and imaged with the live imaging system MX3 Art Optix in the FITC channel with laser excitation. B, The signal in each organ was quantified, normalized to the tissue weight and the ratio tissue/kidney was graphed in bar graph. LyP-1 is a peptide that targets p32 protein on the surface of activated macrophages. Results from n=3 mice. Bars of panel B represent mean+SEM.

T1 sequence (Q2VLH6 39-1121): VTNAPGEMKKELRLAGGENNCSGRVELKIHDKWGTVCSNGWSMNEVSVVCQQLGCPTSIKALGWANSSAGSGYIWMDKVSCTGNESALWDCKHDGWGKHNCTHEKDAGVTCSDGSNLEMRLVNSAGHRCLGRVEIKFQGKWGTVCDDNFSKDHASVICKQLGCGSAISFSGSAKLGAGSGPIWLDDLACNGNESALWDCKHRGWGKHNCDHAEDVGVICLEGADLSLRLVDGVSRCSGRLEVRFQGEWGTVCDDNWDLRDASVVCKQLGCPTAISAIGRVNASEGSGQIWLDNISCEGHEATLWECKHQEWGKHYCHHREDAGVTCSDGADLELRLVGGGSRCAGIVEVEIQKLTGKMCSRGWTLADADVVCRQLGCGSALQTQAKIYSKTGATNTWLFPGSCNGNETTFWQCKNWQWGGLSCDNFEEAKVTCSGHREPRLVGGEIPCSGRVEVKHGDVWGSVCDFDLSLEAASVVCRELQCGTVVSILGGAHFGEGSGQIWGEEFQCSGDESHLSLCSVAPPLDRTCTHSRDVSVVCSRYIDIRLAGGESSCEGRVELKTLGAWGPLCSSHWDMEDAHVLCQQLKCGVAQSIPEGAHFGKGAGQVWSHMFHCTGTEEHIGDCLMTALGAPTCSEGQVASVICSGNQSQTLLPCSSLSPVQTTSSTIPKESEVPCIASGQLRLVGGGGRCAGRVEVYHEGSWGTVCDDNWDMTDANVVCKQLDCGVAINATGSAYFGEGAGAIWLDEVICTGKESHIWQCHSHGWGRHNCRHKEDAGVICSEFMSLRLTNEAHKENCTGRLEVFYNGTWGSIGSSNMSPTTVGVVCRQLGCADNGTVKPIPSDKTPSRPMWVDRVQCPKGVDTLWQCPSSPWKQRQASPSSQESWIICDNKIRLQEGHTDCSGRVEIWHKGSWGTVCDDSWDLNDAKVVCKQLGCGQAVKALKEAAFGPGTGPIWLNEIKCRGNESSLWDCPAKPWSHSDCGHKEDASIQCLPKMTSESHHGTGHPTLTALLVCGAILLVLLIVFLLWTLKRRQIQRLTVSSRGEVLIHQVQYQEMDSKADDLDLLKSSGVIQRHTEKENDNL

Row | Substance | change in fluorescence anisotropy with CD163 [1] | accumulation in MEMs [2] | targeting of tumor cells of human origin (HLA ABC+) [2] | accumulation in tumor [3] | signal in normal brain parenchyma [3] | accumulation of FAM in the sentinel lymph node versus FAM-LyP-1 [4]
1 | FAM-CSPGAK: FAM-labeled linear CSPGAK (SEQ ID NO: 6) (not fully specified; FAM label) | no change in anisotropy |  |  |  |  | 
2 | FAM-UNO: FAM-labeled UNO peptide CSPGAKVRC (SEQ ID NO: 1); 5(6)-carboxyfluorescein with 6-aminohexanoic acid spacer at the N-terminus ({FAM-Ahx}-CSPGAKVRC; cysteine pairing not given here) |  | selectively accumulated in MEMs | did not target the tumor cells of human origin | accumulated in the tumor areas containing MEMs | No signal | significantly higher accumulation of the FAM in the sentinel lymph node
